Results: patent US20060019907A1, “Guggulsterone: an inhibitor of nuclear factor - kappaB and IkappaBalpha kinase activation and uses thereof” (Research Development Foundation, priority 2004, published 2006)

How the values were obtained:
NF-κB [1] = assay: NF-κB activation by EMSA in H1299 cells; type: cell-based, human
Experimental: NF-κB Activation: To determine NF-κB activation, EMSA was carried out as previously described (Chaturvedi et al., 2000). Briefly, nuclear extracts prepared from cells (2×10^6/ml) treated with TNF were incubated with ^32P-end-labeled 45-mer double-stranded NF-κB oligonucleotide (8 μg of protein with […] of DNA) from the human immunodeficiency virus long terminal repeat, 5′-[…] GGCGTGG-3′ (SEQ ID NO:1) (boldface indicates NF-κB binding sites), for 15 min at 37° C. The DNA-protein complex formed was separated from free oligonucleotide on 6.6% native polyacrylamide gels. A double-stranded mutated oligonucleotide, 5′-[…]-3′ (SEQ ID NO:2), was used to examine the specificity of binding of NF-κB to the DNA. The specificity of binding was also examined by competition with the unlabeled oligonucleotide. For supershift assays, nuclear extracts prepared from TNF-treated cells were incubated with antibodies against either the p50 or the p65 subunit of NF-κB for 30 min at room temperature before the complex was analyzed by EMSA. The dried gels were visualized, and radioactive bands were quantitated using a PHOSPHORIMAGER™ (Molecular Dynamics, Sunnyvale, Calif.) using IMAGEQUANT™ software.

NF-κB [2] = assay: NF-κB-dependent reporter gene (SEAP) transcription; type: cell-based, human
Experimental: NF-κB-dependent Reporter Gene Transcription: The effect of guggulsterone on TNF-induced NF-κB dependent reporter gene transcription was measured as previously described (Manna et al., 2000). Briefly, H1299 cells (5×10^5 cells/well) were plated in six-well plates and transiently transfected the next day by LIPOFECTAMINETM 2000 method with pNF-κB-SEAP using the manufacturer's protocol. To examine TNF-induced reporter gene expression, cells was transfected with 2 μg of the SEAP expression plasmid. After 18 hours, medium was removed, cells were rinsed and treated with various doses of guggulsterone for 4 hours and then treated with TNF. Twenty four hours later, the cell culture medium was harvested and analyzed for alkaline phosphatase (SEAP) activity essentially according to the protocol described by the manufacturer (Clontech, Palo Alto, Calif.) using a 96-well fluorescence plate reader ([…]; Labsystems, Chicago, Ill.) with excitation set at 360 nm and emission set at 460 nm.

PARP = PARP cleavage assay, TNF plus guggulsterone; type: cell-based, human; conditions: KBM-5, serum starved 24 hours; TNF in combination with guggulsterone
Experimental: PARP cleavage assay: For detection of cleavage products of PARP, whole-cell extracts were prepared by subjecting the guggulsterone-treated cells to lysis in lysis buffer (20 mM Tris, pH 7.4; 250 mM NaCI; 2 mM EDTA, pH 8.0; 0.1% Triton-X 100; 0.01 μg/ml aprotinin; 0.005 μg/ml leupeptin; 0.4 mM PMSF; and 4 mM NaVO4). Lysates will be spun at 14000 rpm for 10 min to remove insoluble material, resolved by 10% SDS PAGE, and probed with PARP antibodies. PARP is cleaved from the 116-kDa intact protein into 85-kDa and […] peptide products. To detect cleavage products of procaspase-3 and procaspase-9, whole-cell extracts will be resolved by 10% SDS PAGE and probed with appropriate antibodies.

tumor cells = assay: Antiproliferative effects against tumor cells (MTT); type: cell-based, human
Experimental: Cytotoxicity Assay: Cytotoxicity was assayed by the modified tetrazolium salt 3-(4-5-dimethylthiozol-2-yl)2-5-diphenyl-tetrazolium bromide (MTT) assay (Bharti et al., 2003). […] Thereafter, 0.025 ml of MTT solution (5 mg/ml in PBS) was added to each well. After a 2 hour incubation at 37° C., 0.1 ml of the extraction buffer (20% SDS, 50% dimethylformamide) was added. After an overnight incubation at 37° C., the optical densities at 570 nm were measured using a 96-well multiscanner autoreader (Dynatech MR5000), with the extraction buffer as blank. The percent cytotoxicity was determined as follows: (1−(A570 of test sample)/(A570 of control sample)×100%.
Cytotoxicity assay. The cytotoxic effects of guggulsterone was determined by the MTT uptake method. Briefly, 5000 cells were incubated with guggulsterone in triplicate in a 96-well plate at 37° C. MTT solution was then added to each well. After a 2-h incubation at 37° C., extraction buffer (20% SDS, 50% dimethylformamide) was added, the cells were incubated overnight at 37° C., and the OD was then measured at 570 nm using a 96-well multiscanner (Dynex Technologies, MRX Revelation, Chantilly, Va.).

Akt = Akt activation in U937 cells, Western blot; type: cell-based, human; conditions: 10 μM
Experimental: Western blot analysis. Thirty to fifty micrograms of cytoplasmic, nuclear or whole cell protein was resolved on 10% SDS-PAGE gel, transferred to a nitrocellulose membrane, blocked with 5% non-fat milk, and probed with specific antibodies as per manufacturer's recommended protocol. The blots were washed, exposed to HRP-conjugated secondary antibodies for 1 h, and detected by ECL reagent (Amersham Pharmacia Biotechnology, Piscataway, N.J.). The bands were quantitated using a Personal Densitometer Scan v1.30 using Imagequant software version 3.3 (Molecular Dynamics).

U937 cells = assay: Thymidine incorporation assay; type: cell-based, human; conditions: 72 h
Experimental: Thymidine incorporation assay. The antiproliferative effects of guggulsterone were also monitored by the thymidine incorporation method. For this, 5000 cells in 100 μL medium were cultured in triplicate in 96-well plates in the presence or absence of guggulsterone for 72 hours. At 6 hours before the completion of experiment, cells were pulsed with 0.5 μCi (0.0185 MBq) ^3H-thymidine, and the uptake of ^3H-thymidine was monitored by means of a Matrix-9600 β-counter (Packard Instruments, Downers Grove, Ill.).

[3] = target: farnesoid X receptor (FXR) (Homo sapiens, UniProt Q96RI1); conditions: cited from earlier work
Chain of farnesoid X receptor (FXR) (Q96RI1 whole entry, species assumed): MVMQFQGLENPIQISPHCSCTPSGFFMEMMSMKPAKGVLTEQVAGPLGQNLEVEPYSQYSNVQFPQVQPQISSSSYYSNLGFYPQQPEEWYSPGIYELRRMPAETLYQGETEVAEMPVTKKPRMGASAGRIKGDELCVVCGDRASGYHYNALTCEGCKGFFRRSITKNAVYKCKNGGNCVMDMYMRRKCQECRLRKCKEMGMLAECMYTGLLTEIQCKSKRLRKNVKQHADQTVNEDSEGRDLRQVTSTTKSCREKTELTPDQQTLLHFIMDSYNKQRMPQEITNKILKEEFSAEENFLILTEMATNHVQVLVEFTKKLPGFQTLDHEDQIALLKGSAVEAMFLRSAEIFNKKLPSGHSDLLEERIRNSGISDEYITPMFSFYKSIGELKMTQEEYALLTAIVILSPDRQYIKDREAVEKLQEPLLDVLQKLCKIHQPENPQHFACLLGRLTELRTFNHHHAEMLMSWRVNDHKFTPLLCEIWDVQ

[4] = H1299, 4 h pre-incubation, 0.1 nM TNF 30 min

CC=C1C(=O)C[C@H]2[C@@H]3CCC4=CC(=O)CC[C@]4(C)[C@H]3CC[C@]12C [guggulsterone, 4,17(20)-pregnadiene-3,16-dione]
minimum time required for complete inhibition of NF-κB activation (NF-κB [1]; H1299, 50 μM guggulsterone, 0.1 nM TNF 30 min): 4 h | TNF-mediated NF-κB activation, dose dependence (NF-κB [1]; [4]): inhibited TNF-mediated NF-κB activation in a dose-dependent manner | concentration of maximum inhibition of TNF-mediated NF-κB activation (NF-κB [1]; [4]): 50 µM | NF-κB activation induced by TNF, IL-1β, PMA, H2O2, cigarette smoke and okadaic acid (EMSA) (NF-κB [1]; H1299 cells, 50 μM guggulsterone pre-incubated 4 h): suppressed the NF-κB activation induced by all these agents | NF-κB activation by guggulsterone by itself (NF-κB [1]; H1299 nuclear extracts, up to 50 μM): by itself did not activate NF-κB | NF-κB-dependent SEAP expression induced by TNFR, TRADD, NIK and IKKβ plasmids (NF-κB [2]; H1299, 50 μM, 4 hours): suppressed reporter gene expression induced by TNFR, TRADD, NIK and IKKβ plasmids | NF-κB-dependent SEAP expression induced by p65 plasmid (NF-κB [2]; H1299, 50 μM, 4 hours): had no effect on that induced by p65 | TNF-induced NF-κB-dependent SEAP expression (NF-κB [2]; H1299 cells, 0.1 nM TNF 24 hours): inhibited by guggulsterone in a dose-dependent manner | caspase-induced cleavage of PARP activated by TNF (PARP): enhanced the caspase-induced cleavage of PARP activated by TNF | proliferation of head and neck, lung, melanoma, multiple myeloma, leukemia and breast cancer cells (tumor cells; 2000 cells in 0.1 ml, six days, MTT): suppressed the proliferation of a wide variety of cells | proliferation of human leukemia, head and neck carcinoma, multiple myeloma, lung carcinoma, melanoma, breast carcinoma and ovarian cancer cell lines (tumor cells; Example 2): inhibits the proliferation | proliferation of drug resistant cancer cells (tumor cells; STI-resistant K562, dexamethasone resistant MM1, doxorubicin resistant breast cancer cell lines): inhibited the proliferation of drug resistant cancer cells | Akt activation (Akt): suppression of Akt-activation | proliferation of U937 cells, 3H-thymidine incorporation (U937 cells): inhibits proliferation in U937 cells | action on bile acid receptor farnesoid X receptor (FXR) ([3]; Urizar et al., 2002, Wu et al.): antagonist | expression of bile acid-activated genes ([3]; Urizar et al., 2002, Cui et al., 2003): decrease the expression of bile acid-activated genes
